Data reported in article PMC4689406, “(R)-NODAGA-PSMA: A Versatile Precursor for Radiometal Labeling and Nuclear Imaging of PSMA-Positive Tumors” (PLoS ONE, 2015).

Columns and labels:
[1] = system: LNCaP xenografts; assay: Biodistribution in LNCaP xenografts; assay type: in vivo, Balb/C nude mice; conditions: for Adrenal (biodistribution) / Blood (biodistribution) / Heart (biodistribution) / Intestine (biodistribution) / Kidney (biodistribution) / LNCaP-tumor (tumor uptake, biodistribution) / Lung (biodistribution) / Muscle (biodistribution) / Pancreas (biodistribution) / Spleen (biodistribution) / Stomach (biodistribution) / Bone (biodistribution) / Liver (biodistribution) / Tumor/blood / Tumor/kidney / Tumor/muscle: 10 pmol i.v., LNCaP mice; for Tumor/blood / Tumor/kidney / Tumor/muscle: ratio
Description: Female athymic Balb/C nude mice (age: 4–6 weeks, weight: 17–20 g) were purchased from Janvier, France. […] All animal experiments were conducted in strict accordance with the recommendations in the Guide for the Care and Use of Laboratory Animals of the National Institutes of Health. […]

[2] = Lipophilicity (LogD, pH 7.4), shake-flask method; assay type: physicochemical; conditions: octanol/PBS pH 7.4, shake-flask
Description: The lipophilicity (LogD, pH 7.4) was estimated by the “shake-flask” method (S3 Appendix).
The mixture was vortexed for 1 h to reach the equilibrium and then centrifuged (3000 rpm) for 10 min. From each phase, an aliquot (100 μL) was pipetted out and measured in a γ-counter. Each measurement was repeated five times. Care was taken to avoid cross-contamination between the phases. The partition coefficient was calculated as the average log ratio of the radioactivity in the organic fraction and the PBS fraction.

[3] = molecular target: T1, PSMA on LNCaP cells (Homo sapiens, UniProt Q04609); assay: Saturation binding study on intact LNCaP cells; conditions: 120 min at 4°C
T1 construct: host or cells: LNCaP cells
Description: The next day, the medium was removed, the cells washed and incubated for 1 h at 37°C with fresh binding buffer (RPMI Medium 1640-GlutaMAX containing 1% FBS, 100 U/mL penicillin and 100 μg/mL streptomycin, 50 mM Hepes, 50 μg/mL bacitracin, 0.5% BSA). Afterwards, the plates were placed on ice for 30 min followed by incubation with increasing concentrations of either ^68/natGa-CC34, ^64/natCu-CC34, ^111/natIn-CC34 and ^111/[…]-617 (1-100 nM) in phosphate-buffered saline binding buffer pH 7.4. After the addition of the radioligands, the cells were incubated for 120 min at 4°C. […] The cells were washed twice with ice-cold PBS, followed by solubilization with 1 N NaOH and the cell-associated radioactivity was measured using a gamma-counter. Specific binding was plotted against the total molar concentration of the added radiotracer. […] For all the cell studies the values are normalized for 1x10^6 cells per well and all data are from two independent experiments with triplicates in each experiment.

[4] = 1 h p.i. blocked (co-injected 20 nmol PMPA)

T1 sequence (Q04609 whole entry): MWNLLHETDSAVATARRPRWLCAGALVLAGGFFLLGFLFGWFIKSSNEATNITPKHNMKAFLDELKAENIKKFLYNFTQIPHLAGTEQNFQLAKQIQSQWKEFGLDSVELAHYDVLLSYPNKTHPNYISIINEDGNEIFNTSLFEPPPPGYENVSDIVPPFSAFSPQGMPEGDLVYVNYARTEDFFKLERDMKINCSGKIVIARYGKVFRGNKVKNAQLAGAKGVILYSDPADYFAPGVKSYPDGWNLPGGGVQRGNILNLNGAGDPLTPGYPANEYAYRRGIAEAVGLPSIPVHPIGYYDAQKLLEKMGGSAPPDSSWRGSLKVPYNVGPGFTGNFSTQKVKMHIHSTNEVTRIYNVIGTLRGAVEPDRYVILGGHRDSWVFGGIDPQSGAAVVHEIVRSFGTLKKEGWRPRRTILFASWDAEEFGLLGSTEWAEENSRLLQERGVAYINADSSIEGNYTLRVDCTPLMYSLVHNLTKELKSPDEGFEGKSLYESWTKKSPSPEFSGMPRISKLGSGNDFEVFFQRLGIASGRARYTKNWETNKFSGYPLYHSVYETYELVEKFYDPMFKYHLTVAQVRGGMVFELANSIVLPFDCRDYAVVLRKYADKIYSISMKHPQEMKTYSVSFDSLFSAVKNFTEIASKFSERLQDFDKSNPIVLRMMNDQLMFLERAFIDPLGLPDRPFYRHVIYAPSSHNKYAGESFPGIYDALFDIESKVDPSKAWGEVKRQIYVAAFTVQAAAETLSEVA

O=C([O-])CN(CCN(CC(=O)[O-])Cc1cc(CCC(=O)NCCCCCC(=O)NCCCC[C@H](NC(=O)N[C@@H](CCC(=O)O)C(=O)O)C(=O)O)ccc1[O-])Cc1cc(CCC(=O)O)ccc1[O-].[68Ga+3].[OH3+] [^68Ga-HBED-CC-PSMA, HBED-CC-Ahx-Lys-NH-CO-NH-Glu]
Adrenal (biodistribution) [1, 4]: 1.1±0.5 %IA/g | Blood (biodistribution) [1, 4]: 0.4±0.04 %IA/g | Heart (biodistribution) [1, 4]: 0.2±0.06 %IA/g | Intestine (biodistribution) [1, 4]: 0.3±0.04 %IA/g | Kidney (biodistribution) [1, 4]: 11±3 %IA/g | LNCaP-tumor (tumor uptake, biodistribution) [1, 4]: 4.1±1.2 %IA/g | Lung (biodistribution) [1, 4]: 0.7±0.2 %IA/g | Muscle (biodistribution) [1, 4]: 0.2±0.1 %IA/g | Pancreas (biodistribution) [1, 4]: 0.3±0.04 %IA/g | Spleen (biodistribution) [1, 4]: 2.1±0.06 %IA/g | Stomach (biodistribution) [1, 4]: 0.3±0.01 %IA/g | Adrenal (biodistribution) ([1]; 1 h p.i.): 23±4 %IA/g | Blood (biodistribution) ([1]; 1 h p.i.): 0.2±0.04 %IA/g | Bone (biodistribution) ([1]; 1 h p.i.): 0.5±0.05 %IA/g | Heart (biodistribution) ([1]; 1 h p.i.): 0.6±0.06 %IA/g | Intestine (biodistribution) ([1]; 1 h p.i.): 0.5±0.1 %IA/g | Kidney (biodistribution) ([1]; 1 h p.i.): 208±4 %IA/g | LNCaP-tumor (tumor uptake, biodistribution) ([1]; 1 h p.i.): 15.8±1.4 %IA/g | Liver (biodistribution) ([1]; 1 h p.i.): 0.4±0.01 %IA/g | Lung (biodistribution) ([1]; 1 h p.i.): 3.5±0.2 %IA/g | Muscle (biodistribution) ([1]; 1 h p.i.): 0.6±0.06 %IA/g | Pancreas (biodistribution) ([1]; 1 h p.i.): 1.4±0.3 %IA/g | Spleen (biodistribution) ([1]; 1 h p.i.): 31±6 %IA/g | Stomach (biodistribution) ([1]; 1 h p.i.): 0.7±0.1 %IA/g | Adrenal (biodistribution) ([1]; 2 h p.i.): 23±0.8 %IA/g | Bone (biodistribution) ([1]; 2 h p.i.): 0.4±0.2 %IA/g | Heart (biodistribution) ([1]; 2 h p.i.): 0.6±0.02 %IA/g | Intestine (biodistribution) ([1]; 2 h p.i.): 0.5±0.2 %IA/g | Kidney (biodistribution) ([1]; 2 h p.i.): 211±29 %IA/g | LNCaP-tumor (tumor uptake, biodistribution) ([1]; 2 h p.i.): 14.8±2.2 %IA/g | Liver (biodistribution) ([1]; 2 h p.i.): 0.4±0.05 %IA/g | Lung (biodistribution) ([1]; 2 h p.i.): 3.2±0.2 %IA/g | Muscle (biodistribution) ([1]; 2 h p.i.): 0.6±0.2 %IA/g | Pancreas (biodistribution) ([1]; 2 h p.i.): 2±0.5 %IA/g | Spleen (biodistribution) ([1]; 2 h p.i.): 29±2 %IA/g | Stomach (biodistribution) ([1]; 2 h p.i.): 1±0.6 %IA/g | reduction of the tumor uptake (blocking) ([1]; LNCaP tumor, 1 h p.i., co-injection of 20 nmol PMPA): about 75% | Tumor/blood ([1]; 1 h p.i.): 68±4 | Tumor/kidney ([1]; 1 h p.i.): 0.08±0.01 | Tumor/muscle ([1]; 1 h p.i.): 29±6 | Tumor/blood ([1]; 2 h p.i.): 83±15 | Tumor/kidney ([1]; 2 h p.i.): 0.07±0.02 | Tumor/muscle ([1]; 2 h p.i.): 24±3 | LogDoctanol/PBS [2]: -4.06 ± 0.10 | Bmax (maximum number of binding sites) [3]: 0.41 ± 0.02 nM | Kd ([3]; non-specific binding with 1 μM PMPA, read-out: Kd (dissociation constant)): 2.9 ± 0.6 nM
